From US9844563B2, “Compositions, kits, and methods to induce acquired cytoresistance using stress protein inducers” (FRED HUTCHINSON CANCER RESEARCH CENTER, priority 2014, dated 2017)
“And” between values parts separate entries of the source, which are not always exact repeats. Equal entries are not always repeated.

Legend:
HO-1 = test: Renal cortical HO-1 protein (ELISA) after IV myoglobin, SnPP or both; assay type: in vivo, mice; conditions: Cortex, 4 hr IV, 1 mg Myoglobin, 1 μmole SnPP
Text: The Glycerol Model of AKI. This is a widely used model of rhabdomyolysis-induced AKI that has been employed worldwide for 50 years. The model was used to test whether prophylactic interventions confer protection against AKI. Basically, the protocol is as follows: Male CD-1 mice (35-45 grams), obtained from Charles River Laboratories, Wilmington, Mass. were studied. Mice were maintained under standard vivarium conditions and generally housed for 1-3 weeks prior to study. The mice were placed in a cylindrical restraining cage, and then were given a tail vein injection of the test substances (see below) or test substance vehicle. The mice were then returned to their cages. Eighteen hours (hrs) later, the mice were briefly anesthetized by isoflurane inhalation, and given an intramuscular injection of hypertonic (50%) glycerol in a dose of 9 ml/Kg body weight. The dose is divided in two, with half injected into the muscle of each of the hind limbs. The mice were then returned to their cages. Eighteen hrs later, the mice were deeply anesthetized with pentobarbital (50-100 mg/Kg), the abdominal cavity was opened through a midline abdominal incision, a blood sample was obtained from the abdominal vena cava and the kidneys were resected. A kidney cross section was obtained and fixed in formalin for subsequent histologic analysis. The terminal blood samples were analyzed for BUN and creatinine, using commercially available assay kits. The remaining kidney tissue was subjected to cortical dissection, and the cortical tissues were then extracted for protein and RNA. The protein samples were saved for analysis of HO-1 levels, and the RNA samples were subjected to RT-PCR to quantify HO-1 mRNA as well as levels of other stress gene mRNAs (e.g. NGAL, haptoglobin, hemopexin, hepicidin).
Myoglobin+SnPP: To 5 mg of dry myoglobin was added 0.9 ml of PBS+0.1 ml of a stock SnPP solution (50 umole/ml). The resulting final concentrations were 5 mg/ml myoglobin+5 umoles/ml of SnPP. The tail vein was injected with 200 ul of this solution, which equals 1 mg myoglobin+1 umole SnPP. […]
Four hr post myoglobin vs myoglobin+SnPP vs SnPP alone experiments. To confirm that the myoglobin+SnPP has a synergistic effect in inducing HO-1 mRNA and HO-1 protein levels, each of the above combinations have been administered alone via tail vein injection. […] For additional information regarding methods, see Zager et al., Am J Physiol Renal Physiol. 2014 Jul. 30. Pii.

[1] = Maleate model of AKI (FeS, SnPP, FeS+SnPP); assay type: in vivo, mice; conditions: IV 1 mg FeS and/or 1 μmole SnPP 18 hrs before IP Na maleate 800 mg/Kg; 18 hrs later
Text: Effects of Fe sucrose (FeS)/tin protoporphyrin (SnPP) on AKI severity. Maleate model of AKI. When injected into rodents, maleate undergoes relatively selective proximal tubule cell uptake via organic anion transporters. Once intracellular accumulation occurs, maleate is a preferred substrate for succinyl-CoA:3-oxoacid CoA transferase. […] Ample levels of CoA are essential for fatty acid “activation”, allowing for their subsequent metabolism through the Krebs cycle, yielding ATP. In the absence of this process, proximal tubule ATP depletion and cell injury result. Additionally, maleate conjugates the sulfhydryl group of glutathione (GSH), culminating in GSH depletion and potential oxidant tubular stress.
The following experiment tested whether FeS, SnPP or combined FeS+SnPP can mitigate this form of acute kidney injury (AKI). Twenty seven mice were subjected to 200 μL IV tail injections of one of the following: 1) vehicle (phosphate buffered saline, PBS; n, 10); 2) 1 mg FeS (American Regent (Shirley, N.Y.; n, 3); 3) 1 μmole SnPP (Frontier Scientific, Logan, Utah; n 7), or FeS+SnPP, n, 7). Eighteen hrs later, all mice received an IP injection of Na maleate (800 mg/Kg; in 500 ul of PBS). […] The severity of kidney injury was assessed by determining plasma blood urea nitrogen (BUN) and plasma creatinine (PCr) concentrations.

C=Cc1c2[n-]c(c1C)/C=c1\[n-]/c(c(C)c1C=C)=C\c1[n-]c(c(CCC(=O)O)c1C)C=c1[n-]/c(c(C)c1CCC(=O)O)=C\2.[Sn+4] [SnPP, Sn-protoporphyrin, reference compound]
HO-1 Protein Expression (by ELISA), Average (HO-1; average): 34.4 ng HO-1/mg protein
HO-1 Protein Expression (by ELISA), individual mice (HO-1; single animals): 32.2 ng HO-1/mg protein and 31.5 ng HO-1/mg protein and 20.5 ng HO-1/mg protein and 53.6 ng HO-1/mg protein
reductions in BUN/PCr concentrations, maleate-induced AKI [1]: Neither SnPP alone nor FeS alone significantly altered the severity of renal injury
